Tests used:
Carbonic anhydrase 1 = Carbonic anhydrase 1 (Homo sapiens, UniProt P00915); assay: Inhibition of recombinant human carbonic anhydrase 1 after 15 mins by stopped flow CO2 hydration assay
Carbonic anhydrase 2 = Carbonic anhydrase 2 (Homo sapiens, UniProt P00918); assay: Inhibition of recombinant human carbonic anhydrase 2 after 15 mins by stopped flow CO2 hydration assay
Carbonic anhydrase 9 = Carbonic anhydrase 9 (Homo sapiens, UniProt Q16790); assay: Inhibition of recombinant human carbonic anhydrase 9 after 15 mins by stopped flow CO2 hydration assay
Homo sapiens [1] = species: Homo sapiens; assay: Selectivity ratio of IC50 for recombinant human carbonic anhydrase 2 to IC50 for recombinant human carbonic anhydrase 9
Homo sapiens [2] = species: Homo sapiens; assay: Selectivity ratio of IC50 for recombinant human carbonic anhydrase 1 to IC50 for recombinant human carbonic anhydrase 9

Carbonic anhydrase 1, sequence (P00915 whole entry): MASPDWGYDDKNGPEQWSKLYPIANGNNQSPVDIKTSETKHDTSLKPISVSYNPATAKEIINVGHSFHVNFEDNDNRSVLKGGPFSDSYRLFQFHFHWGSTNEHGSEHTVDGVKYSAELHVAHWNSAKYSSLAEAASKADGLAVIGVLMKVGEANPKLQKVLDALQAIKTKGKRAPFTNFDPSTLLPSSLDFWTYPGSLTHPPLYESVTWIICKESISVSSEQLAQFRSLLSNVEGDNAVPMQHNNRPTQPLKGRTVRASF

Row | IC50 (Carbonic anhydrase 1) | IC50 (Carbonic anhydrase 2) | IC50 (Carbonic anhydrase 9) | Ratio IC50 (Homo sapiens [1]) | Ratio IC50 (Homo sapiens [2]) | Structure (SMILES)
1 | > 10000 nM | > 10000 nM | 3930 nM |  |  | COc1cccc(-c2nnc(Nc3ccc(S(N)(=O)=O)cc3)c3ccccc23)c1
2 | 220 nM | 61.8 nM | > 690 nM |  |  | COc1cccc(-c2nnc(Nc3cccc(S(N)(=O)=O)c3)c3ccccc23)c1
3 | > 10000 nM | 455 nM | 18.5 nM | 24.5 | > 1000 | NS(=O)(=O)c1ccc(Nc2nnc(-c3cccc(S(N)(=O)=O)c3)c3ccccc23)cc1
4 | > 10000 nM | > 10000 nM | > 690 nM |  |  | NS(=O)(=O)c1cccc(Nc2nnc(-c3ccccc3)c3ccccc23)c1
5 | > 10000 nM | > 10000 nM | > 690 nM |  |  | COc1ccc(-c2nnc(Nc3cccc(S(N)(=O)=O)c3)c3ccccc23)cc1
6 | > 10000 nM | > 10000 nM | > 3900 nM |  |  | NS(=O)(=O)c1ccc(Nc2nnc(-c3ccc(C(F)(F)F)cc3)c3ccccc23)cc1
7 | > 10000 nM | > 10000 nM | > 3900 nM |  |  | NS(=O)(=O)c1ccc(Nc2nnc(-c3ccccc3)c3ccccc23)cc1
8 | > 10000 nM | 547 nM | 0.48 nM | 1140 | > 10000 | Cc1ccc(-c2nnc(Nc3ccc(S(N)(=O)=O)cc3)c3ccccc23)cc1S(N)(=O)=O
9 | > 10000 nM | > 10000 nM | > 3900 nM |  |  | NS(=O)(=O)c1ccc(Nc2nnc(-c3ccc(Cl)cc3)c3ccccc23)cc1
10 | > 10000 nM | > 10000 nM | > 690 nM |  |  | NS(=O)(=O)c1cccc(Nc2nnc(-c3ccc(Cl)cc3)c3ccccc23)c1
11 | > 10000 nM | 147 nM | 28.3 nM | 5.3 | > 100 | Nc1ccc(Nc2nnc(-c3cccc(S(N)(=O)=O)c3)c3ccccc23)cc1
12 | > 10000 nM | > 10000 nM | 29 nM | > 100 | > 100 | CC(C)(C)c1ccc(Nc2nnc(-c3cccc(S(N)(=O)=O)c3)c3ccccc23)cc1
13 | > 10000 nM | > 10000 nM | 690 nM |  |  | NS(=O)(=O)c1cccc(Nc2nnc(-c3ccc(C(F)(F)F)cc3)c3ccccc23)c1
14 | 85.7 nM | 26.8 nM | 3.3 nM | 8.1 | 25.7 | Cc1cc(-c2nnc(Nc3ccc(S(N)(=O)=O)cc3)c3ccccc23)ccc1S(N)(=O)=O
